The test system of assay [1] is peritoneal macrophages of wild-type mice. In kind it is cell-based, mouse.
The test system of assay [2] is TLR1^-/- macrophages. The format is cell-based, mouse.
Assay [3] concerns TLR1^-/- macrophages. The format is cell-based, mouse. The source holds these as a separate data set.
In another assay the test system is TLR2^-/- macrophages. As to conditions: Science 291, 1544, 2001; cited from earlier work.
A further assay has as its target T1, TLR2 (Homo sapiens, UniProt O60603).
T1 construct: expressed in transfected cells; host or cells: HEK 293 cells, transient transfection
In words: NF-κB pELAM-luciferase reporter assay in HEK 293 cells expressing TLR2. As to conditions: expression of TLR2, 10 ng/ml for 8 h. The format is cell-based. On the procedure: (§1) HEK 293 cells were transformed with TLR1, TLR2 and TLR6 expression vectors, and pELAM-luciferase reporter plasmid were used together. For normalization of transfection efficiency by lipofectamine 2000 (Invitrogen), the indicated vector was used with pELAM-luciferase reporter plasmid (J. Bio. Chem. 274, 10689, 1999) and pRL-TK (Promega) to transfect transiently […] cells. 24 h after transfection, the cells were stimulated with 10 ng/ml of Pam3CSK4 for 8 h. Then, the cells were lysed, and luciferase activity was measured by using Dual-luciferase reporter assay system (Promega) according to the manufacturer's instruction.
For orientation: A reporter such as luciferase makes a cellular process visible.

A further assay addresses T2, TLR6 and TLR2 (Homo sapiens, UniProt O60603).
T2 construct: expressed in transfected cells; host or cells: HEK 293 cells, transient transfection
In words: NF-κB pELAM-luciferase reporter assay in HEK 293 cells co-expressing TLR6 and TLR2. The format is cell-based. As to conditions: co-expression of TLR6 and TLR2, 10 ng/ml for 8 h. On the procedure: as §1

In assay [4] the target is T3, TLR1 and TLR2 (Homo sapiens, UniProt O60603+Q15399). Put plainly: Co-immunoprecipitation of HA-tagged TLR1 and Flag-tagged TLR2 in HEK293 cells. In kind it is binding. Set-up: expressed in transfected cells; host or cells: HEK293 cells. On the procedure: HEK293 cells were co-transfected with 3 μg Flag-tagged TLR2, TLR4 or 6 μg HA-tagged TLR1. After 36 h, the cells were lysed in the lysis buffer containing 1.0% Nonidet P-40, 150 mM NaCl, 20 mM tris-HCl (pH 7.5), 5 mM EDTA and aprotease inhibitor cocktail tablet, Complete (Roche Diagnostics). The solution was pre-treated for 1 h with protein G-sepharose, and immunoprecipitated for 12 h by using 2 μg anti-Flag M2 antibody or 2 μg anti-HA 12 CA5 antibody. The beads were washed four times in the lysis buffer, and the immunoprecipitated proteins were eluted in SDS-PAGE sample buffer solution, separated on SDS-PAGE and transferred onto PVDF membrane. HA-tagged TLR1 was detected with anti-HA antibody (Roche Diagnostics) and HRP-tagged anti-mouse Ig antibody. Flag-tagged proteins were identified with the second antibody, HRP-conjugated anti-Flag M2 antibody. Then, the antibodies were detected by enhanced chemiluminescence system (Dupont).

The target of assay [5] is T3, TLR1 and TLR2. Put plainly: NF-κB pELAM-luciferase reporter assay in HEK 293 cells co-expressing TLR1 and TLR2. In kind it is cell-based. Set-up: expressed in transfected cells; host or cells: HEK 293 cells, transient transfection. As to conditions: co-expression of TLR1 with TLR2, 10 ng/ml for 8 h. The method, then: as §1

T3 sequence (Q15399 25-786, species assumed): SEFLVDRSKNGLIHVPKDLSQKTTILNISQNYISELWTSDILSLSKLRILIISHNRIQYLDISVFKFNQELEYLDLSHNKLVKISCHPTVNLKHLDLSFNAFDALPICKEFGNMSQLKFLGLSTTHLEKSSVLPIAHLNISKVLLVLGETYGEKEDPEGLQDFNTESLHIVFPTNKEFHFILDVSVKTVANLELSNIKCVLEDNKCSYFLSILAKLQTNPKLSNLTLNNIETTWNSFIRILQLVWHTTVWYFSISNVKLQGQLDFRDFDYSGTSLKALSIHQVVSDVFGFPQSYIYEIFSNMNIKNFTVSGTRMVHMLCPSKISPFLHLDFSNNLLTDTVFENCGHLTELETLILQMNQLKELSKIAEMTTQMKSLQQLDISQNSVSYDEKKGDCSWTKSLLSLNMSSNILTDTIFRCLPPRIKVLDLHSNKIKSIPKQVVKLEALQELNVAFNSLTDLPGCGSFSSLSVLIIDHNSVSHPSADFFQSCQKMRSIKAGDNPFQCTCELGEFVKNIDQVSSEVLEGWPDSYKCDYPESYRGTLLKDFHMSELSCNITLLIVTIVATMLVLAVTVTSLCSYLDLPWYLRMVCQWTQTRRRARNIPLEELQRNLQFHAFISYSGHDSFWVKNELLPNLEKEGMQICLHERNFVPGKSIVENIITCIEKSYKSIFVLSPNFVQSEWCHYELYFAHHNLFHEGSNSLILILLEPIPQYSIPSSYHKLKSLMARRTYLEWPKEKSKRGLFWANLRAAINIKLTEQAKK
T3 sequence (O60603 21-784, species assumed): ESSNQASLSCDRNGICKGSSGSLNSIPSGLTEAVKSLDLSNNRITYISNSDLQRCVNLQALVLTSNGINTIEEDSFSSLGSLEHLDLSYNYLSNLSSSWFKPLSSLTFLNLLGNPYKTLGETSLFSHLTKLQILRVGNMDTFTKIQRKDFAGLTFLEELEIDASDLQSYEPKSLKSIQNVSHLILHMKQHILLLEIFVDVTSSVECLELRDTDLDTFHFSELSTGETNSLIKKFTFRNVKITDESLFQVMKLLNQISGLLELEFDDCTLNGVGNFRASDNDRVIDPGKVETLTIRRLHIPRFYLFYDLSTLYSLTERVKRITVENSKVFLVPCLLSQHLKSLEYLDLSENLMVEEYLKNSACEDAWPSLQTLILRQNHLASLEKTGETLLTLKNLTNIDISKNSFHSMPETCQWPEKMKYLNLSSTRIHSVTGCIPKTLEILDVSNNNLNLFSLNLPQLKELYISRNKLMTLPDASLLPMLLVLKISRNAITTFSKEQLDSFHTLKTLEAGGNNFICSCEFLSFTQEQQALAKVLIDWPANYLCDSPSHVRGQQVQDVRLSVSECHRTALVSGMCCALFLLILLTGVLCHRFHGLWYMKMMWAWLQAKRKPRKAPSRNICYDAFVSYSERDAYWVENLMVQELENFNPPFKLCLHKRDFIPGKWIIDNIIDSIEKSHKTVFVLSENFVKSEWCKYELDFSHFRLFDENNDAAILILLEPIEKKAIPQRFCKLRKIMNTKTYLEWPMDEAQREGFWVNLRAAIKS
T2 sequence (O60603 21-784, species assumed): as above
T1 sequence (O60603 21-784, species assumed): as above
T1 sequence (Q15399 25-786, species assumed, further chain): as the sequence (Q15399 25-786, species assumed) above

In the case of “19 kD lipoprotein: Native 19-kD lipoprotein purified from Mycobacterium tuberculosis”, the TNFα production entry in assay [1] is “generated TNFα in a dose-dependent manner”; in the assay on TLR1^-/- macrophages [2], “impaired”. In the assay on TLR1^-/- macrophages [3], the IL-6 production result is “lower in TLR1^-/- macrophages compared with that of wild-type cells”. Further, in the assay with TLR2^-/- macrophages, the Cytokine production result is given as “inhibited”.
As to MALP-2, the TNFα production entry with TLR1^-/- macrophages [2] is listed as “responded normally”.
As to “N-lauryl-S-dilauryl gylceryl (Lau3)CSK4 [Lau3CSK4]”, the TNFα production entry with TLR1^-/- macrophages [2] was “impaired”.
Still for that read-out and setting: as for “N-myristyl-S-dimyristyl glyceryl (Myr3) CSK4 [Myr3CSK4]”, the entry is “impaired”; as for “N-palmitoyl-S-dilauryl glyceryl (N-Pam-S-Lau2)CSK4 [Lau2N-PamCSK4]”, “considerably impaired”.
Regarding “N-palmitoyl-S-dipalmitoyl glyceryl (Pam3) CSK4 [Pam3CSK4]”, the TNFα production entry in the assay on TLR1^-/- macrophages [2] was “significantly impaired”. The “NF-κB activation (luciferase activity)” value at TLR2 is “conferred the NF-κB activation”; at TLR6 and TLR2, “did not augment the NF-κB activation”; on TLR1 and TLR2 [5] it was “significantly enhanced the activation”. Also, the “extent of association between TLR1 and TLR2 on stimulation” value at TLR1 and TLR2 [4] is given as “did not affect”.

(Values after patent US20060059579A1, “Model animals non-responsive to mycobacteria-origin lipoprotein/lipopeptide” (Japan Science and Technology Agency, priority 2002, published 2006).)
